# Laboratory results: article PMC5430895 (Scientific Reports, 2017)
# pIC50: −log10 of the molar value.
# Columns and labels:
# RASF = assay: PDGF-induced proliferation of cultured RASF (cell counting); type: cell-based, human; settings: 18 h, PDGF 10 ng/ml
# Experimental: Data are shown as mean ± SEM. […] Cells were grown at standard conditions. […] Cell number was evaluated with a […] cell counter (Roche Innovatis, Reutlingen, Germany).
# WT-HEK293 cells = assay: Saracatinib uptake in WT-HEK293 cells (HPLC-UV); settings: WT-HEK293, 10 µM saracatinib, 10 min
# hOCT2 [1] = target: T1, hOCT2 (Homo sapiens, UniProt O15244); assay: Inhibition of ASP+ uptake in hOCT2-HEK293 cells (apparent affinity); type: cell-based; design: expressed in transfected cells; host or cells: HEK293; settings: hOCT2-HEK293, ASP+ 1 µM
# T1 sequence (O15244 1-555): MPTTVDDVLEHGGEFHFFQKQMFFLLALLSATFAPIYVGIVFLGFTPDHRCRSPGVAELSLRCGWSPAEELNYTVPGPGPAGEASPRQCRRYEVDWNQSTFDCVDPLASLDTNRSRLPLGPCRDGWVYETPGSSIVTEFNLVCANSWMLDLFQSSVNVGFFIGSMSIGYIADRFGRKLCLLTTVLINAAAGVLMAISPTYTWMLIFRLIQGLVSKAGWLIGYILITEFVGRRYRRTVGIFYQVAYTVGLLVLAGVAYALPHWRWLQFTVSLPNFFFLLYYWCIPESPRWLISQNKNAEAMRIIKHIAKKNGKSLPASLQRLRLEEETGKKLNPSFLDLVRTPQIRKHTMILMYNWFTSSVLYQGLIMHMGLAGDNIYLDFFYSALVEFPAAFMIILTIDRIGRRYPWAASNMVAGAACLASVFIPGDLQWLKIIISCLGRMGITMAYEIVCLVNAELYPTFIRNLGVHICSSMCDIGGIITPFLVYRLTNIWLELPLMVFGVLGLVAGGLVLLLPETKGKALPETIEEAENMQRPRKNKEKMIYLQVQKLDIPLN
# hOCTN2 = target: T2, hOCTN2 (Homo sapiens, UniProt O76082); assay: Saracatinib uptake in hOCTN2-expressing HEK293 cells (HPLC-UV); settings: hOCTN2-HEK293, 10 µM saracatinib, 10 min; not significantly different from WT
# T2 sequence (O76082 1-557): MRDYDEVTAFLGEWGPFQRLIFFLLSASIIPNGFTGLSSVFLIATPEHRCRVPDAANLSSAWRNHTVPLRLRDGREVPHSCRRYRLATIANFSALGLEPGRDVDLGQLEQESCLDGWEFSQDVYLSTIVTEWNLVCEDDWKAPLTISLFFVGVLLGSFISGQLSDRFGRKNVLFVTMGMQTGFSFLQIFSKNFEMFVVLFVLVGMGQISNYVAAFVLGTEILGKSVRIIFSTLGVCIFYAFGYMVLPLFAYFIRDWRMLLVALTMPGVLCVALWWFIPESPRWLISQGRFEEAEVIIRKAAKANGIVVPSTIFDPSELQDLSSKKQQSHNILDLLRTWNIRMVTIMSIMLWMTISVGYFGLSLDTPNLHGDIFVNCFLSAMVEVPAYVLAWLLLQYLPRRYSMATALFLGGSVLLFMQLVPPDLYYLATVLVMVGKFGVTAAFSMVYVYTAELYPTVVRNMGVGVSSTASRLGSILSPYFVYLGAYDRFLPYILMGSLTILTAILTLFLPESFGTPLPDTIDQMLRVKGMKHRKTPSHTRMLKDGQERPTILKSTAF
# hOCT1 = target: T3, hOCT1 (Homo sapiens, UniProt O15245); assay: Saracatinib uptake in hOCT1-overexpressing HEK293 cells (HPLC-UV); settings: hOCT1-HEK293, 10 µM saracatinib, 10 min, difference of accumulation at 4 °C and 37 °C
# T3 sequence (O15245 1-554): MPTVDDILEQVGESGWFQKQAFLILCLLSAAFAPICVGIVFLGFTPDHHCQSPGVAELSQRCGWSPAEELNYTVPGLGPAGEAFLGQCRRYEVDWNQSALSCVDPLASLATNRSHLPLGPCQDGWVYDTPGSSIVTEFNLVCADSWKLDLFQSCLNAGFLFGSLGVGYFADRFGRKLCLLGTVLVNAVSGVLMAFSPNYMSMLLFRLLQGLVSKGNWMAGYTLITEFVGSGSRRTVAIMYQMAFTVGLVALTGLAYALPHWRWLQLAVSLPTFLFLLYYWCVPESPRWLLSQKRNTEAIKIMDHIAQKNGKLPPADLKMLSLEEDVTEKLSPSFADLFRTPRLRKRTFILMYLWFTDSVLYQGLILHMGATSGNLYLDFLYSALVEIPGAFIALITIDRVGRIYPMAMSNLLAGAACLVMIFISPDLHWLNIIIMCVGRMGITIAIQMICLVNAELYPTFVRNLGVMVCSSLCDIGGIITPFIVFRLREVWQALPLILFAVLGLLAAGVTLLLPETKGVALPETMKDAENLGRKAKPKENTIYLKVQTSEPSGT
# hOCT2 [2] = target: T1, hOCT2; assay: Saracatinib uptake in hOCT2-overexpressing HEK293 cells (HPLC-UV); settings: hOCT2-HEK293, 10 µM saracatinib, 10 min, difference of accumulation at 4 °C and 37 °C
# hOCTN1 = target: T4, hOCTN1 (Homo sapiens, UniProt Q9H015); assay: Inhibition of ASP+ uptake in hOCTN1-HEK293 cells (apparent affinity); type: cell-based; design: expressed in transfected cells; host or cells: HEK293, expression induced with 1 mg/l doxycycline; settings: hOCTN1-HEK293, ASP+ 1 µM
# T4 sequence (Q9H015 1-551): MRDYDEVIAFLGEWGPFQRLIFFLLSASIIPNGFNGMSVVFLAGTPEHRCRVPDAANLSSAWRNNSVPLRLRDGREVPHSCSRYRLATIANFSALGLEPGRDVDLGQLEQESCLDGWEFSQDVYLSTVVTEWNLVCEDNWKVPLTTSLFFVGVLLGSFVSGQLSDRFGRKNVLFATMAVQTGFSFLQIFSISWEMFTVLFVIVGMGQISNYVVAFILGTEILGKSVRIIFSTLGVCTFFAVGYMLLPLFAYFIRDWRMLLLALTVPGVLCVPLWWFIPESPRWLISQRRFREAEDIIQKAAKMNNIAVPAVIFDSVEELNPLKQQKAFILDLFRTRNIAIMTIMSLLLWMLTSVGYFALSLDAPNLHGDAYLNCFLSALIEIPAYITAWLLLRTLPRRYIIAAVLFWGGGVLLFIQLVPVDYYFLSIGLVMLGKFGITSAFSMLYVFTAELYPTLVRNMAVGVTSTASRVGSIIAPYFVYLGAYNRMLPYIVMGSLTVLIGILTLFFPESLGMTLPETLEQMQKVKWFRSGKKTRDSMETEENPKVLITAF
smiles,measurement,setting,value
"CN1CCN(CCOc2cc(OC3CCOCC3)c3c(Nc4c(Cl)ccc5c4OCO5)ncnc3c2)CC1 [saracatinib, N-(5-chloro-1,3-benzodioxol-4-yl)-7-[2-(4-methylpiperazin-1-yl)ethoxy]-5-(tetrahydro-2H-pyran-4-yloxy)quinazolin-4-amine]",inhibition of PDGF-induced cell proliferation,RASF; 0.1 µM saracatinib,Complete inhibition
same,inhibition of PDGF-induced cell proliferation,RASF; 0.001–1 µM saracatinib,potent and dose-dependent inhibition
same,saracatinib accumulation (specific uptake),WT-HEK293 cells,1.8 ± 0.5 nmol/mg protein
same,pIC50,hOCT2 [1],6.05
same,saracatinib accumulation (specific uptake),hOCTN2,3.8 ± 1.7 nmol/mg protein
same,saracatinib accumulation (specific uptake),hOCT1,8.8 ± 0.9 nmol/mg protein
same,saracatinib accumulation (specific uptake),hOCT2 [2],7.0 ± 0.5 nmol/mg protein
same,pIC50,hOCTN1,7.14
